# Assays:
# Assay in all cases: radiometric filter-binding kinase assay, Kinase HotSpot
# Conditions in all cases: compound 0.5 µM; ATP 10 µM
# ROCK1 (human) = ROCK1 (human) (UniProt Q13464)
# EPHB3 (human) = EPHB3 (human) (UniProt P54753)
# CDK4 CCND3 (human) = CDK4 CCND3 (human) (UniProt P30281+P11802)
# JAK3 JH1 JH2 (human) = JAK3 JH1 JH2 (human) (UniProt P52333)
# NEK2 (human) = NEK2 (human) (UniProt P51955)
# CLK3 (human) = CLK3 (human) (UniProt P49761)
# MST1R (human) = MST1R (human) (UniProt Q04912)
# CDK6 CCND1 (human) = CDK6 CCND1 (human) (UniProt Q00534+P24385)
# PLK1 (human) = PLK1 (human) (UniProt P53350)
# CSNK1D (human) = CSNK1D (human) (UniProt P48730)
# AURKB (human) = AURKB (human) (UniProt Q96GD4)
# KDR (human) = KDR (human) (UniProt P35968)
# MERTK (human) = MERTK (human) (UniProt Q12866)
# MAP3K5 (human) = MAP3K5 (human) (UniProt Q99683)
# TEC (human) = TEC (human) (UniProt P42680)
# PRKCB1 (human) = PRKCB1 (human) (UniProt P05771)
# DCLK2 (human) = DCLK2 (human) (UniProt Q8N568)
# TXK (human) = TXK (human) (UniProt P42681)
# ACVR1 (human) = ACVR1 (human) (UniProt Q04771)
# DAPK1 (human) = DAPK1 (human) (UniProt P53355)
# PAK4 (human) = PAK4 (human) (UniProt O96013)
# FER (human) = FER (human) (UniProt P16591)
# PHKG1 (human) = PHKG1 (human) (UniProt Q16816)
# TGFBR2 (human) = TGFBR2 (human) (UniProt P37173)
# CDC42BPB (human) = CDC42BPB (human) (UniProt Q9Y5S2)
# RIPK2 (human) = RIPK2 (human) (UniProt O43353)
# TBK1 (human) = TBK1 (human) (UniProt Q9UHD2)
# PIM1 (human) = PIM1 (human) (UniProt P11309)
# CDK4 CCND1 (human) = CDK4 CCND1 (human) (UniProt P24385+P11802)
# AKT1 (human) = AKT1 (human) (UniProt P31749)
# EPHA2 (human) = EPHA2 (human) (UniProt P29317)
# PDGFRA (human) = PDGFRA (human) (UniProt P16234)
# MAPK14 (human) = MAPK14 (human) (UniProt Q16539)
# FYN (human) = FYN (human) (UniProt P06241)
# CHEK2 (human) = CHEK2 (human) (UniProt O96017)
# MAPK12 (human) = MAPK12 (human) (UniProt P53778)
# EPHB4 (human) = EPHB4 (human) (UniProt P54760)
# MAP3K14 (human) = MAP3K14 (human) (UniProt Q99558)
# ERBB2 (human) = ERBB2 (human) (UniProt P04626)
# MAPK11 (human) = MAPK11 (human) (UniProt Q15759)
# [1] = biological target: TYK2 JH1 catalytic (human) (UniProt P29597)
# STK17A (human) = STK17A (human) (UniProt Q9UEE5)
# Sequence of PLK1 (human) (P53350 whole entry, looked up): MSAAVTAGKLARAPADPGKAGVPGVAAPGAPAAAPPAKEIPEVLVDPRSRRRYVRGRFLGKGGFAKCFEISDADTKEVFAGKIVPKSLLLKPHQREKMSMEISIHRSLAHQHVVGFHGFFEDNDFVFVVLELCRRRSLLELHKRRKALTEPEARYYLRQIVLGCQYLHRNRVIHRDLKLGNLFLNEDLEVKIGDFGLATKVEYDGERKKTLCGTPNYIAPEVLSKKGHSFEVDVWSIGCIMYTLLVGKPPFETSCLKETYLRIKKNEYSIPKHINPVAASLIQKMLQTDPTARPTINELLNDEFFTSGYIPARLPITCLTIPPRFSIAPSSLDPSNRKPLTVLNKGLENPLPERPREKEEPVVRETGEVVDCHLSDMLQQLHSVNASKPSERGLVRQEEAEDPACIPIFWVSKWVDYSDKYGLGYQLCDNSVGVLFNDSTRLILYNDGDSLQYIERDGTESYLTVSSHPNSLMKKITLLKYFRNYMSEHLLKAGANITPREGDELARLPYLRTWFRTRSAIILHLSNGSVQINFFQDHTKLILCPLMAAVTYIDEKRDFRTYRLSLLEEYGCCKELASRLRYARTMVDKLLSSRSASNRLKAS
# Sequence of PRKCB1 (human) (P05771 whole entry, looked up): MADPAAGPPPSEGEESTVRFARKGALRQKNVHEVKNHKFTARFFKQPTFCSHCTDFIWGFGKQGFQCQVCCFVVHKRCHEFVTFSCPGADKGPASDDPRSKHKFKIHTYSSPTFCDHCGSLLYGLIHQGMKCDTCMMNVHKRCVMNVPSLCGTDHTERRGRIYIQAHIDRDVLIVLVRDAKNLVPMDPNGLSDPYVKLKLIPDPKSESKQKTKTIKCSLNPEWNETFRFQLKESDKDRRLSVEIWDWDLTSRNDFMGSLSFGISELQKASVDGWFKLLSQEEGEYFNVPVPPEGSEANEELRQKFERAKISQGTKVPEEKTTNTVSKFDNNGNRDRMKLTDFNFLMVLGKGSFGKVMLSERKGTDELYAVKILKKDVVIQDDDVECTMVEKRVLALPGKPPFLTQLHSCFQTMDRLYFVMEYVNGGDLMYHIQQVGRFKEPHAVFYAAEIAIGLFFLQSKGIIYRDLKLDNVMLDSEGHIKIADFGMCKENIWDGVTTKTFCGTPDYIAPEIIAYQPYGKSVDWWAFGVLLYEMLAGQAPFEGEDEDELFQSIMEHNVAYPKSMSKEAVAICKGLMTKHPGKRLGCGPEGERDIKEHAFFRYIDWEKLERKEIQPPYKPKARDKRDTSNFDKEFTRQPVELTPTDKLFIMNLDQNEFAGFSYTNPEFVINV
# Sequence of RIPK2 (human) (O43353 whole entry, looked up): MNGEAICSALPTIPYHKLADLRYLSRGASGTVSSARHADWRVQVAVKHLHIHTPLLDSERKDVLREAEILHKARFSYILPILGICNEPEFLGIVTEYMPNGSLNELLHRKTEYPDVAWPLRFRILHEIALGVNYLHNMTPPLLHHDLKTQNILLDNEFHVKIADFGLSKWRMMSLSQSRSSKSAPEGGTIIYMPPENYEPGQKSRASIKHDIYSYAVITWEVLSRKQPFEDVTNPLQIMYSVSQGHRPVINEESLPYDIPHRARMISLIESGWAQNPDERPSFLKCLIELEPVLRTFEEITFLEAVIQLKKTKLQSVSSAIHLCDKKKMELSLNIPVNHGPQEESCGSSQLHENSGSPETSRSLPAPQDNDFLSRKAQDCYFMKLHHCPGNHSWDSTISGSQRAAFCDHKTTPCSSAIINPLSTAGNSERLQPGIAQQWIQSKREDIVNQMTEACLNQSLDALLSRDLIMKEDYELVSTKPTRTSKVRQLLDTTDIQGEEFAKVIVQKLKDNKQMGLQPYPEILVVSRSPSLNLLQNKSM
# Sequence of CSNK1D (human) (P48730 whole entry, looked up): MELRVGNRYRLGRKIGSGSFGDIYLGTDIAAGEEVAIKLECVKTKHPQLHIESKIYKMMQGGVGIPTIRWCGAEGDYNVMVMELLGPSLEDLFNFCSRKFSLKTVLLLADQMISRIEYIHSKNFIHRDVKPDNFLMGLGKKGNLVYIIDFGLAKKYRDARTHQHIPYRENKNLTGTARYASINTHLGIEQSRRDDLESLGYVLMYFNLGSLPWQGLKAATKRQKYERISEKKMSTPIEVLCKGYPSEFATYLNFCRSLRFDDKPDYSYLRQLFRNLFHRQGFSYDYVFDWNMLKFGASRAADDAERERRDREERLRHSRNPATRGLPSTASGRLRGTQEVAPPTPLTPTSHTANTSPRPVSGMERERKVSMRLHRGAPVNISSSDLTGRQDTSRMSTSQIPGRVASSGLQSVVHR
# Sequence of MAP3K5 (human) (Q99683 whole entry, looked up): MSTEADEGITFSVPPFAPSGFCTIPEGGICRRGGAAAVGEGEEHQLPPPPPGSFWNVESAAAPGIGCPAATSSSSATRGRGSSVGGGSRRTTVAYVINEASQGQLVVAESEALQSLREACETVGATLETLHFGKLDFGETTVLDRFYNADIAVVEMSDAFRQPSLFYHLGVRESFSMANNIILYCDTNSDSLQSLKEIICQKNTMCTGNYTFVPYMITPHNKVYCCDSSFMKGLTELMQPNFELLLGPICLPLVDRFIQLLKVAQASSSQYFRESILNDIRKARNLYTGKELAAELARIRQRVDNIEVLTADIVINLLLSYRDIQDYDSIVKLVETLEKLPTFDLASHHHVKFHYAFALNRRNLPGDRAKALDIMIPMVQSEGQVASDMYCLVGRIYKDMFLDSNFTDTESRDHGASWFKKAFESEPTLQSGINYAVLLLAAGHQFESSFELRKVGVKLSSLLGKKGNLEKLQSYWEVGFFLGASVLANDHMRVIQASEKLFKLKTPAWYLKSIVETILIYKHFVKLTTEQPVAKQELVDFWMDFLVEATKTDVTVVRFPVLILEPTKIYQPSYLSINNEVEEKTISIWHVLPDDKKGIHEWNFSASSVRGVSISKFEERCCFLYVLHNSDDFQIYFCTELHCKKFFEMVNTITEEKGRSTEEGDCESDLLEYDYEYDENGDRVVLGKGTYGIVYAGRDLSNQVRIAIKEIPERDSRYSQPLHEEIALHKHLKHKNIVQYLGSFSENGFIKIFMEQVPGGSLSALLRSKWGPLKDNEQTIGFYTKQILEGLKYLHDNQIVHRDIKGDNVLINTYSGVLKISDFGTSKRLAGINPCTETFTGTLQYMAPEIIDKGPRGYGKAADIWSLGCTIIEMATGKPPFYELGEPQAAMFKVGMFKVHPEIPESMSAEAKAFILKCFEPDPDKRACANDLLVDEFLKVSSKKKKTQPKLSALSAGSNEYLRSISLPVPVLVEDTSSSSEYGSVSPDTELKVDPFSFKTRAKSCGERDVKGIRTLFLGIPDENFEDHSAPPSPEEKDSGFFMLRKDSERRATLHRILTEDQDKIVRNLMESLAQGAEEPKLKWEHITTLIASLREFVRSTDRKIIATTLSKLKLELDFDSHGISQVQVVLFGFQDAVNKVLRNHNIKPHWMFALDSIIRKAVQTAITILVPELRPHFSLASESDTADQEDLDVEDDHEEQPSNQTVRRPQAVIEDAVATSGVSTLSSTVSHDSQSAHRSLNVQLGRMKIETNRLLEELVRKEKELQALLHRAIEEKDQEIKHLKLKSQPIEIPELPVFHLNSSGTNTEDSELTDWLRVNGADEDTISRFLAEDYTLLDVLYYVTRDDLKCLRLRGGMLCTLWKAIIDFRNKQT
# Sequence of PAK4 (human) (O96013 whole entry, looked up): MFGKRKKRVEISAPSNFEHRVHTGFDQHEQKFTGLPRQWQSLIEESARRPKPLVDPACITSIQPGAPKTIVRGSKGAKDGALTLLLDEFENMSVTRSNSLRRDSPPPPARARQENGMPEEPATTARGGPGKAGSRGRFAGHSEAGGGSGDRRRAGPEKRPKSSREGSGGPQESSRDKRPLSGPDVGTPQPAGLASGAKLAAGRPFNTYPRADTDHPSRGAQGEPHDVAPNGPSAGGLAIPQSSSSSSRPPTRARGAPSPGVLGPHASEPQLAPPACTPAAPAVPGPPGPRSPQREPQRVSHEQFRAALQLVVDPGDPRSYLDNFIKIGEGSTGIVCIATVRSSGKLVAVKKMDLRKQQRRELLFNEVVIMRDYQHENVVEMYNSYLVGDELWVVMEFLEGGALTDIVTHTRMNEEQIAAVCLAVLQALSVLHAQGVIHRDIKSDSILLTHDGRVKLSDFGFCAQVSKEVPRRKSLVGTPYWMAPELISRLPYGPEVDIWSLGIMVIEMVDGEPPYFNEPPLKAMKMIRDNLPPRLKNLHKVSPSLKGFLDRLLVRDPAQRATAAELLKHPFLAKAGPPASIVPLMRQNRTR
# Sequence of NEK2 (human) (P51955 whole entry, looked up): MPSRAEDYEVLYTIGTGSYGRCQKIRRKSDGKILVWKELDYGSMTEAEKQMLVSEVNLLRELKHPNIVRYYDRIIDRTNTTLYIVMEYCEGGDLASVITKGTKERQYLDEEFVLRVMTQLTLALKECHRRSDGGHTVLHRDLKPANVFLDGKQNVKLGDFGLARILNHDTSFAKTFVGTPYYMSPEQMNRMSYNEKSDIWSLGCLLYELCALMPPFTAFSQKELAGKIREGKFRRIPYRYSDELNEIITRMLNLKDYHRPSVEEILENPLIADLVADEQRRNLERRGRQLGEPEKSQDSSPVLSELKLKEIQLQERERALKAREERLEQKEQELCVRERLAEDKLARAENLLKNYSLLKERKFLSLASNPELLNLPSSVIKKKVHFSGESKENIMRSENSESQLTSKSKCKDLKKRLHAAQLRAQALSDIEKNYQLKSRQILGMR
# Sequence of PHKG1 (human) (Q16816 whole entry, looked up): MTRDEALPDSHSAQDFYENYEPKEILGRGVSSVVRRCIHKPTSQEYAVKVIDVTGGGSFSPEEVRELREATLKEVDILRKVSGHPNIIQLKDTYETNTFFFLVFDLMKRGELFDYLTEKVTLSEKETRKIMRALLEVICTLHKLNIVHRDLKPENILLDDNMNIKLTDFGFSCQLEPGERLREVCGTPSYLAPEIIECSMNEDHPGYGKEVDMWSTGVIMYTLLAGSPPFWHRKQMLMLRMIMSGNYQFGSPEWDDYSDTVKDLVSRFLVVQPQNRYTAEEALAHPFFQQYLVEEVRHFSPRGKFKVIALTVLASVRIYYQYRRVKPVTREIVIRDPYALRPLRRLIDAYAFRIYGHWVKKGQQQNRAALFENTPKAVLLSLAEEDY
smiles,measurement,setting,value
O=C1Nc2cc(Br)ccc2/C1=C1/Nc2ccccc2/C1=N\O,residual activity,ROCK1 (human),99%
same,residual activity,EPHB3 (human),103%
same,residual activity,CDK4 CCND3 (human),75.9%
same,residual activity,JAK3 JH1 JH2 (human),53.3%
same,residual activity,NEK2 (human),95.5%
same,residual activity,CLK3 (human),71.2%
same,residual activity,MST1R (human),98.7%
same,residual activity,CDK6 CCND1 (human),35.9%
same,residual activity,PLK1 (human),101%
same,residual activity,CSNK1D (human),85.4%
same,residual activity,AURKB (human),39.1%
same,residual activity,KDR (human),64.2%
same,residual activity,MERTK (human),79.4%
same,residual activity,MAP3K5 (human),91.6%
same,residual activity,TEC (human),104%
same,residual activity,PRKCB1 (human),98.5%
same,residual activity,DCLK2 (human),99.1%
same,residual activity,TXK (human),27.7%
same,residual activity,ACVR1 (human),114%
same,residual activity,DAPK1 (human),90%
same,residual activity,PAK4 (human),95.3%
same,residual activity,FER (human),69.8%
same,residual activity,PHKG1 (human),41.8%
same,residual activity,TGFBR2 (human),106%
same,residual activity,CDC42BPB (human),97.5%
same,residual activity,RIPK2 (human),75.2%
same,residual activity,TBK1 (human),62.1%
same,residual activity,PIM1 (human),96.1%
same,residual activity,CDK4 CCND1 (human),93.4%
same,residual activity,AKT1 (human),97.7%
same,residual activity,EPHA2 (human),70.9%
same,residual activity,PDGFRA (human),68.4%
same,residual activity,MAPK14 (human),105%
same,residual activity,FYN (human),5.05%
same,residual activity,CHEK2 (human),48.3%
same,residual activity,MAPK12 (human),93.8%
same,residual activity,EPHB4 (human),78.5%
same,residual activity,MAP3K14 (human),89.6%
same,residual activity,ERBB2 (human),102%
same,residual activity,MAPK11 (human),99.6%
same,residual activity,[1],25.6%
same,residual activity,STK17A (human),49.2%
O=c1cc(-c2cccc3c2Sc2ccccc2S3)oc(N2CCOCC2)c1,residual activity,ROCK1 (human),101%
same,residual activity,EPHB3 (human),105%
same,residual activity,CDK4 CCND3 (human),99.2%
same,residual activity,JAK3 JH1 JH2 (human),108%
same,residual activity,NEK2 (human),103%
same,residual activity,CLK3 (human),121%
same,residual activity,MST1R (human),111%
same,residual activity,CDK6 CCND1 (human),98.1%
same,residual activity,PLK1 (human),102%
same,residual activity,CSNK1D (human),106%
same,residual activity,AURKB (human),95.8%
same,residual activity,KDR (human),95.9%
same,residual activity,MERTK (human),97%
same,residual activity,MAP3K5 (human),104%
same,residual activity,TEC (human),198%
same,residual activity,PRKCB1 (human),103%
same,residual activity,DCLK2 (human),106%
same,residual activity,TXK (human),106%
same,residual activity,ACVR1 (human),97.5%
same,residual activity,DAPK1 (human),82.7%
same,residual activity,PAK4 (human),116%
same,residual activity,FER (human),103%
same,residual activity,PHKG1 (human),106%
same,residual activity,TGFBR2 (human),93.4%
same,residual activity,CDC42BPB (human),103%
same,residual activity,RIPK2 (human),114%
same,residual activity,TBK1 (human),88.5%
same,residual activity,PIM1 (human),77.6%
same,residual activity,CDK4 CCND1 (human),112%
same,residual activity,AKT1 (human),113%
same,residual activity,EPHA2 (human),96.2%
same,residual activity,PDGFRA (human),101%
same,residual activity,MAPK14 (human),99.3%
same,residual activity,FYN (human),88.6%
same,residual activity,CHEK2 (human),102%
same,residual activity,MAPK12 (human),114%
same,residual activity,EPHB4 (human),94.3%
same,residual activity,MAP3K14 (human),94.9%
same,residual activity,ERBB2 (human),97.3%
same,residual activity,MAPK11 (human),102%
same,residual activity,[1],95.8%
same,residual activity,STK17A (human),98.2%

# Source: the kinase profiling compilation of Christmann-Franck et al. (2016)
